Results: patent US10221139B2, “Inhibitors of histone demethylases” (Gilead Sciences, Inc., priority 2012, dated 2019)

Assays:
Type in all cases: biochemical
GASC1 (KDM4C, JMJD2C) = molecular target: T1, GASC1 (KDM4C, JMJD2C) (Homo sapiens, UniProt Q9H3R0); assay: Histone lysine demethylase AlphaLISA assay, GASC1; details: substrate BK9M3
T1 construct: 1-349; host or cells: E. coli
T1 sequence (Q9H3R0 1-349): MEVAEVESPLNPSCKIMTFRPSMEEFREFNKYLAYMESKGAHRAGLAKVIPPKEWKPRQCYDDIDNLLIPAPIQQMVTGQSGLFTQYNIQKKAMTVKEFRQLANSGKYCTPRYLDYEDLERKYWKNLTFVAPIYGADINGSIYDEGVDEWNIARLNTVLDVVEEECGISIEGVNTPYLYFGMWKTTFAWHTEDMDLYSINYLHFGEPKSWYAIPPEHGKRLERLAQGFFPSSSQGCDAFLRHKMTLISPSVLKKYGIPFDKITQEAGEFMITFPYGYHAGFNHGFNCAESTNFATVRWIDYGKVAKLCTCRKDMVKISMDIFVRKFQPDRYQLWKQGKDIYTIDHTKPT
Procedure, shortened: (§1)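 AlphaLISA read-out, IC50. Enzyme 10 min preinc → + cpd (3% DMSO soln) 10 min → + substrate, RT → acceptor beads 60 min dark RT → streptavidin donor beads, dark RT → read.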

JMJD2A (KDM4A) = molecular target: T2, JMJD2A (KDM4A) (Homo sapiens, UniProt O75164); assay: Histone lysine demethylase AlphaLISA assay, JMJD2A; details: substrate BK9M3
T2 construct: 1-350; purchased BPS, Bioscience, US; host or cells: E. coli
T2 sequence (O75164 1-350): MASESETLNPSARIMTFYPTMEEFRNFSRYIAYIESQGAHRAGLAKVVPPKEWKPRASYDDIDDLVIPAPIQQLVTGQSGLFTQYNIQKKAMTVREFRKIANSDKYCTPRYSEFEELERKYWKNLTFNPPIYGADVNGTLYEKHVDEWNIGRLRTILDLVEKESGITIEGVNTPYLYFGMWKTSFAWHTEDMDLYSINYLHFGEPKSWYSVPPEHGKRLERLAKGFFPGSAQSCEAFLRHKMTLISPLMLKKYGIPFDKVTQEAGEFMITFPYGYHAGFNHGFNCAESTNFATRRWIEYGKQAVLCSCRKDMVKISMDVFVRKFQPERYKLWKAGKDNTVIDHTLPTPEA
Experimental: (§2) Example 2: Histone Lysine Demethylase AlphaLISA Assays for IC50 Value Determination
(§3) Assays are performed analogously to the protocol described by Perkin Elmer (Roy et al. Perkin Elmer Technical Note: AlphaLISA #12, April 2011).
(§4) Enzymes are dissolved in enzyme buffer and incubated for 10 min before 5 μL is added to 5 μL 3% DMSO solutions of compounds in enzyme buffer. Incubated for another 10 minutes, before 5 μL substrate solution is added and the reaction mixture is incubated at room temperature for the given period. 10 μL acceptor beads, suspended at given dilutions in Epigenetic Buffer (Perkin Elmer AL008) from stock, are added and the suspension is incubated 60 minutes in the dark at room temperature, before 10 μL suspension (at the given dilutions in Epigenetic Buffer) of streptavidin donor beads (Perkin Elmer 6760002) in Epigenetic Buffer is added. After incubation at room temperature in the dark the plates are read. Reaction conditions are seen in Table 2b.

JMJD3 (KDM6B) = molecular target: T3, JMJD3 (KDM6B) (Homo sapiens, UniProt O15054); assay: Histone lysine demethylase AlphaLISA assay, JMJD3; details: substrate BK27M3
T3 construct: 1043-end; purchased BPS; host or cells: Bac (baculovirus)
T3 sequence (O15054 1043-1682 isoform O15054-1 limits assumed): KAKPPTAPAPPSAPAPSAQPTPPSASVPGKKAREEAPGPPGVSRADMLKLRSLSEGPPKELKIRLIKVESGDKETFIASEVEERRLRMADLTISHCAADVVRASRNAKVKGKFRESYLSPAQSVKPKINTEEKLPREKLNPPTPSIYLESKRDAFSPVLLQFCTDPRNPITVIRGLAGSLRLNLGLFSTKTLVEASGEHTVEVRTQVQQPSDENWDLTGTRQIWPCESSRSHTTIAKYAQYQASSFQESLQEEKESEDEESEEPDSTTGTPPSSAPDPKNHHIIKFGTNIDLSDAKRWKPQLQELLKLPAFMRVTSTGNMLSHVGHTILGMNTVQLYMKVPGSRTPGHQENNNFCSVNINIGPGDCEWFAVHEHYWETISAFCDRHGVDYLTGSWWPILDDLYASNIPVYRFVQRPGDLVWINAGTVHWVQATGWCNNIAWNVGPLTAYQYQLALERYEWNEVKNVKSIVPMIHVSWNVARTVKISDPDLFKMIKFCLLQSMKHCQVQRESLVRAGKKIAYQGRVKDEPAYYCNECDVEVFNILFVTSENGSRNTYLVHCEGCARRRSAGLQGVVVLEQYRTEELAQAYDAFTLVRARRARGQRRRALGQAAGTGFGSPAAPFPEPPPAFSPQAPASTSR
Experimental: as §2, §3, §4

UTX (KDM6A) = molecular target: T4, UTX (KDM6A) (Homo sapiens, UniProt O15550); assay: Histone lysine demethylase AlphaLISA assay, UTX; details: substrate BK27M3
T4 construct: 919-1401; host or cells: E. coli
T4 sequence (O15550 919-1401): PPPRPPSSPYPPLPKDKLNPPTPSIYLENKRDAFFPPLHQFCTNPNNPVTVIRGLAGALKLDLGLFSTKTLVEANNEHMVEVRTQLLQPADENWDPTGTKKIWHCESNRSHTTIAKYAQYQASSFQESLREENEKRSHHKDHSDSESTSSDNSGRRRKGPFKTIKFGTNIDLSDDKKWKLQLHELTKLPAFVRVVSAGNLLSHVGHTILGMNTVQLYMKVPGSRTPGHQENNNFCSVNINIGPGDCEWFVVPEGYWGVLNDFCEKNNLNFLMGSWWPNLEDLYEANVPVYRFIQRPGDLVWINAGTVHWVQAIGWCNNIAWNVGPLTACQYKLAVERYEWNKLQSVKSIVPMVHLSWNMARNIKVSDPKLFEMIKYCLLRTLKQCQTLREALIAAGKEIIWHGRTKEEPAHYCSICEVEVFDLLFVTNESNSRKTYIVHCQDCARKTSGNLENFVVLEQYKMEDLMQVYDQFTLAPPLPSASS
Procedure, shortened: as §1

JARID1C (KDM5C) = molecular target: T5, JARID1C (KDM5C) (Homo sapiens, UniProt P41229); assay: Histone lysine demethylase AlphaLISA assay, JARID1C; details: substrate H3K4M3B
T5 construct: 2-1560; purchased BPS; host or cells: Bac (baculovirus)
T5 sequence (P41229 2-1560): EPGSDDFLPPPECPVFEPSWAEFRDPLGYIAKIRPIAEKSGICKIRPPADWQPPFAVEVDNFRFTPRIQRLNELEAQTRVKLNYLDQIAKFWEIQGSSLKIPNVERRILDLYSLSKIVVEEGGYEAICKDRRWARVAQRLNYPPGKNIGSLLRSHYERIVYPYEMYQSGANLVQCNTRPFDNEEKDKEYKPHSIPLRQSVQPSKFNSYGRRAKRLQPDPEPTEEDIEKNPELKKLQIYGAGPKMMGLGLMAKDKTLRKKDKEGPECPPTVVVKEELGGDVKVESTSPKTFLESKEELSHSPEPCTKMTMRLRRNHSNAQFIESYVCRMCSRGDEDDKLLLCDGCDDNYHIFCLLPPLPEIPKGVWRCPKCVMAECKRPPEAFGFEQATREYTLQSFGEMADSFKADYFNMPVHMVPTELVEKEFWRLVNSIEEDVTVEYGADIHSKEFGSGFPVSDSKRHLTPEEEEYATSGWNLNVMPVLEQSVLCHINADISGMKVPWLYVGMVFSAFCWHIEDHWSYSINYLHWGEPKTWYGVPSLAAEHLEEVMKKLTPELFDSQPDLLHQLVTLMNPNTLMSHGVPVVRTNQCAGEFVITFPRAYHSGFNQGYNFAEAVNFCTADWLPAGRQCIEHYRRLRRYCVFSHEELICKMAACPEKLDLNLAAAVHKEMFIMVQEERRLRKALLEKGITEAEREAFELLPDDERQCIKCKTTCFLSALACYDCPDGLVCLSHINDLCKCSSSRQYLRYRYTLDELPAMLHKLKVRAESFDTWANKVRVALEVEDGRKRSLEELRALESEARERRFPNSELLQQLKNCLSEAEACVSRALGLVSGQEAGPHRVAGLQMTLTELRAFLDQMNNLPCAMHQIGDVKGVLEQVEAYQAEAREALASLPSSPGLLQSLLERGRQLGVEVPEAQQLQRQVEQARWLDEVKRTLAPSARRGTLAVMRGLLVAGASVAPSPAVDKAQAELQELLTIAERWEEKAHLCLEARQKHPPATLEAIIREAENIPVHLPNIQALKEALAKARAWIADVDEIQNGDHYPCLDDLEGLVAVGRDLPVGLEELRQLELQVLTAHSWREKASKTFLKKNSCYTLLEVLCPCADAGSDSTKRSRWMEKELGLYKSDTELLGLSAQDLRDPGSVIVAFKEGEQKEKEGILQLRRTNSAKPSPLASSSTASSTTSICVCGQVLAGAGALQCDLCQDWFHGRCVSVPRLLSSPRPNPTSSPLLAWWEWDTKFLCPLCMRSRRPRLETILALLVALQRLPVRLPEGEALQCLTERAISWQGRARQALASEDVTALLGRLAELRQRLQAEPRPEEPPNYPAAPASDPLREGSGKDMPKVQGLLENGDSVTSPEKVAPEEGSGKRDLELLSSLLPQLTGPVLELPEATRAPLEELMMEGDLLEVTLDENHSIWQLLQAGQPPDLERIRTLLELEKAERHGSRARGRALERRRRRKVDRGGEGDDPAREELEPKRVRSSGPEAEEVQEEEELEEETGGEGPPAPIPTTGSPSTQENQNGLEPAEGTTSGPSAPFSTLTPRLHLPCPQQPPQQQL
Experimental: as §2, §3, §4

FBXL10 (KDM2B) = molecular target: T6, FBXL10 (KDM2B) (Homo sapiens, UniProt Q8NHM5); assay: Histone lysine demethylase AlphaLISA assay, FBXL10; details: substrate BH3K36M2
T6 construct: 1-650; purchased BPS, Bioscience, US; host or cells: Bac (baculovirus)
T6 sequence (Q8NHM5 1-650): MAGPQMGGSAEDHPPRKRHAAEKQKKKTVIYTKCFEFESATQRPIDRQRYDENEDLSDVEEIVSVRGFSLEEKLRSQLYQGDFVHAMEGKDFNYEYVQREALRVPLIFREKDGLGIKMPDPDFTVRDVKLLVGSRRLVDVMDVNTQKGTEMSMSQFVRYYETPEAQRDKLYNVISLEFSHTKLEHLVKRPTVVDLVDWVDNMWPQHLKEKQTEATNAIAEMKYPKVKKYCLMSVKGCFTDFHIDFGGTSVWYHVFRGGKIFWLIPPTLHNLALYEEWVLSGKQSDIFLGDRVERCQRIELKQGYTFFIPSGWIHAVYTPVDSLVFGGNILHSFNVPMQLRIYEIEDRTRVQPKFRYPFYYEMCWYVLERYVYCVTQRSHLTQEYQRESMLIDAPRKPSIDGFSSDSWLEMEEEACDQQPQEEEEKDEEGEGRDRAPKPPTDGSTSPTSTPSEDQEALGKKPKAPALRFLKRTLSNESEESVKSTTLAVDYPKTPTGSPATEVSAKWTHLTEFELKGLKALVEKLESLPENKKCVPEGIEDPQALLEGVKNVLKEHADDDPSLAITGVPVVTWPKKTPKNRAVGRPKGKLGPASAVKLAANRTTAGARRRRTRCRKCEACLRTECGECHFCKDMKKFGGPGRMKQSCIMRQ
Experimental: as §2, §3, §4

JMJD1B (KDM3B) = molecular target: T7, JMJD1B (KDM3B) (Homo sapiens, UniProt Q7LBC6); assay: Histone lysine demethylase AlphaLISA assay, JMJD1B; details: substrate BK9M2
T7 construct: 842-1761; host or cells: Bac (baculovirus)
T7 sequence (Q7LBC6 842-1761): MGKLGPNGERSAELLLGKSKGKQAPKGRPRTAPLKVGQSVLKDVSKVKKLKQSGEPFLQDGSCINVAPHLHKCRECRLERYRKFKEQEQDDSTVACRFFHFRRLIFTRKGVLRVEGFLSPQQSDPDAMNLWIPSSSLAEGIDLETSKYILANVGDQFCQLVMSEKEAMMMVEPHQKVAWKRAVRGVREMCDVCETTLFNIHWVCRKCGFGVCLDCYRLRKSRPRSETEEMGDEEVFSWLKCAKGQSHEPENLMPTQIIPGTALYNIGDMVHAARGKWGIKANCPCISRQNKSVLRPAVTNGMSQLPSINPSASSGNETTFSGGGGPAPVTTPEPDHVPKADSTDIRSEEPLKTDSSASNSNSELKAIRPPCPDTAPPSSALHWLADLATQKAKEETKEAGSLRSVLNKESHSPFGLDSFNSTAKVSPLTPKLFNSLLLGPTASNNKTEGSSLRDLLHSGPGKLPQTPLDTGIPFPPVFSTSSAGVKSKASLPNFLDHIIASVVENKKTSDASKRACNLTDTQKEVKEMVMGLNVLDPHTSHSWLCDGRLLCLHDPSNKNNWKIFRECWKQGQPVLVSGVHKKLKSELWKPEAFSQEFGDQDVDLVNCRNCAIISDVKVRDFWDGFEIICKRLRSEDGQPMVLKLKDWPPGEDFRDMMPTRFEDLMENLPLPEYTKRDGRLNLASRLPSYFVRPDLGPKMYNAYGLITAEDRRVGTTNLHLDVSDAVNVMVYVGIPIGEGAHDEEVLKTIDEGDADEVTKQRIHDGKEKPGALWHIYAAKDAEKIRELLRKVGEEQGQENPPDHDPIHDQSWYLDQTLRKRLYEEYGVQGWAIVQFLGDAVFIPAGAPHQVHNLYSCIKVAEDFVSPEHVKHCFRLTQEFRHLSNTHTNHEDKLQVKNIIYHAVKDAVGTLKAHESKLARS
Experimental: as §2, §3, §4

JMJD2B (KDM4B) = molecular target: T8, JMJD2B (KDM4B) (Homo sapiens, UniProt O94953); assay: Histone lysine demethylase AlphaLISA assay, JMJD2B; details: substrate BK9M3, read-out: JMUD2B IC50
T8 construct: 2-500; purchased BPS; host or cells: Bac (baculovirus)
T8 sequence (O94953 2-500): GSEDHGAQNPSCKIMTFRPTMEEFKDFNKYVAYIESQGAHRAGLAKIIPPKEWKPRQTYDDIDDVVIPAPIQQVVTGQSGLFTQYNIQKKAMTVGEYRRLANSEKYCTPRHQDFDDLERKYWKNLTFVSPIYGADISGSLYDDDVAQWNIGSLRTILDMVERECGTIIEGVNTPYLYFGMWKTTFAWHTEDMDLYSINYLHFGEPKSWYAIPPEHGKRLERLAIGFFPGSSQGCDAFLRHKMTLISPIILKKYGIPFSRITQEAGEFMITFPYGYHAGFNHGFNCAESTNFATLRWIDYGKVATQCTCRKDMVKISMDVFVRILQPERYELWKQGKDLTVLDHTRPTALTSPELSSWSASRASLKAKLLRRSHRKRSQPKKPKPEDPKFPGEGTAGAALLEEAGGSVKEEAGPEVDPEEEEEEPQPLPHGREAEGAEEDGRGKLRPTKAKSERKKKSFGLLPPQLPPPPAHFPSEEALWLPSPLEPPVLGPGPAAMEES
Experimental: as §2, §3, §4

PLU1 (KDM5B) = molecular target: T9, PLU1 (KDM5B) (Homo sapiens, UniProt Q9UGL1); assay: Histone lysine demethylase AlphaLISA assay, PLU1; details: substrate H3K4M3B
T9 construct: 1-809; host or cells: E. coli
T9 sequence (Q9UGL1 1-809): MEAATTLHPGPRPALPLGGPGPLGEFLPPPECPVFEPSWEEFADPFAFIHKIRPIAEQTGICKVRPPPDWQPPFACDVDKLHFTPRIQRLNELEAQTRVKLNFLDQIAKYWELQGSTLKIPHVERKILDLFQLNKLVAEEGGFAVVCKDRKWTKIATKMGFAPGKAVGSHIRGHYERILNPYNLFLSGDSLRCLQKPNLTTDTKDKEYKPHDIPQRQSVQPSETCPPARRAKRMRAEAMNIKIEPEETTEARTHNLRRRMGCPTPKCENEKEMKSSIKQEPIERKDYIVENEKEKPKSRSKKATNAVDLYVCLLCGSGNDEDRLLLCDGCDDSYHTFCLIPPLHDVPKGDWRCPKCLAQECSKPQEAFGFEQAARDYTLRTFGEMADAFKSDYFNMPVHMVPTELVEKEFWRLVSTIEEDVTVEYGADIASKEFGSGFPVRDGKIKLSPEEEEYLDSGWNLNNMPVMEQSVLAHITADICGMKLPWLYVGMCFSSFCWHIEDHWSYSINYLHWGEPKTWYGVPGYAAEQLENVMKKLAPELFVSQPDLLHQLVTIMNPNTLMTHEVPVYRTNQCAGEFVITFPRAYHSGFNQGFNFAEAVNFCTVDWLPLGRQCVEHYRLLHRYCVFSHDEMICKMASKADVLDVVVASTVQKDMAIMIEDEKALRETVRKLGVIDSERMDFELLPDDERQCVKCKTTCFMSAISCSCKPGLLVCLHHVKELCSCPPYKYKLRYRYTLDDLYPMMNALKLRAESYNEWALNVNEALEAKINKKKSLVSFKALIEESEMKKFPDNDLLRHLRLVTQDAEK
Procedure, shortened: as §1

PHF8 (KDM7) = molecular target: T10, PHF8 (KDM7) (Homo sapiens, UniProt Q9UPP1); assay: Histone lysine demethylase AlphaLISA assay, PHF8; details: substrate BK9M2
T10 construct: KDM7 (PHF8); BRIC; 1-1322; Bac
T10 sequence (Q9UPP1 37-477 limits assumed): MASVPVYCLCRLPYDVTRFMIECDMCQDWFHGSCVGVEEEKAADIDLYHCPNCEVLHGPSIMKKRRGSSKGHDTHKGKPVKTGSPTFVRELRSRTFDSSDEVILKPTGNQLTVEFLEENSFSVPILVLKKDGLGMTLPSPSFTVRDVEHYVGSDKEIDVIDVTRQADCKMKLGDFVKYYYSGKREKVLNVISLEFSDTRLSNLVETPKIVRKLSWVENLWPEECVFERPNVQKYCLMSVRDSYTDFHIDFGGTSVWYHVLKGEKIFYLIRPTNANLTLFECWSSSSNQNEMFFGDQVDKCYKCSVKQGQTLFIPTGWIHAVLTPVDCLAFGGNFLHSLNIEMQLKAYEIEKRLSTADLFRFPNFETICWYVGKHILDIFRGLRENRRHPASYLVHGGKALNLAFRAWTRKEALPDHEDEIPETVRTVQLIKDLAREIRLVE
Experimental: as §2, §3, §4

| SMILES | IC50 (GASC1 (KDM4C, JMJD2C)) | IC50 (JMJD2A (KDM4A)) | IC50 (JMJD3 (KDM6B)) | IC50 (UTX (KDM6A)) | IC50 (JARID1C (KDM5C)) | IC50 (FBXL10 (KDM2B)) | IC50 (JMJD1B (KDM3B)) | IC50 (JMJD2B (KDM4B)) | IC50 (PLU1 (KDM5B)) | IC50 (PHF8 (KDM7)) |
| --- | --- | --- | --- | --- | --- | --- | --- | --- | --- | --- |
| O=C(O)c1ccnc(CNCCCn2ccnc2)c1 [#1, 2-({[3-(1H-imidazol-1-yl)propyl]amino}methyl)pyridine-4-carboxylic acid] | 0.1 to 1 µM | < 0.1 µM | ≥ 1 µM | ≥ 1 µM | < 0.1 µM | ≥ 1 µM | – | – | – | – |
| COc1ccc(CNCc2cc(C(=O)O)ccn2)c(OC)c1 [#11, 2-({[(2,4-dimethoxyphenyl)methyl]amino}methyl)pyridine-4-carboxylic acid] | ≥ 1 µM | ≥ 1 µM | ≥ 1 µM | ≥ 1 µM | – | – | ≥ 1 µM | ≥ 1 µM | < 0.1 µM | – |
| Cn1c(CNCc2cc(C(=O)O)ccn2)nc2ccccc21 [#15, 2-({[(1-methyl-1H-1,3-benzodiazol-2-yl)methyl]amino}methyl)pyridine-4-carboxylic acid] | 0.1 to 1 µM | < 0.1 µM | ≥ 1 µM | ≥ 1 µM | < 0.1 µM | – | – | < 0.1 µM | < 0.1 µM | – |

Next, values leading:

| IC50 (GASC1 (KDM4C, JMJD2C)) | IC50 (JMJD2A (KDM4A)) | IC50 (JMJD3 (KDM6B)) | IC50 (UTX (KDM6A)) | IC50 (JARID1C (KDM5C)) | IC50 (FBXL10 (KDM2B)) | IC50 (JMJD1B (KDM3B)) | IC50 (JMJD2B (KDM4B)) | IC50 (PLU1 (KDM5B)) | IC50 (PHF8 (KDM7)) | SMILES |
| --- | --- | --- | --- | --- | --- | --- | --- | --- | --- | --- |
| < 0.1 µM | < 0.1 µM | ≥ 1 µM | ≥ 1 µM | – | – | ≥ 1 µM | < 0.1 µM | – | – | CN(C)CCNCc1cc(C(=O)O)ccn1 [#2, 2-({[2-(dimethylamino)ethyl]amino}methyl)pyridine-4-carboxylic acid] |
| 0.1 to 1 µM | 0.1 to 1 µM | ≥ 1 µM | ≥ 1 µM | < 0.1 µM | – | – | < 0.1 µM | < 0.1 µM | ≥ 1 µM | O=C(O)c1ccnc(CNCCCN2CCCC2)c1 [#46, 2-({[3-(pyrrolidin-1-yl)propyl]amino}methyl)pyridine-4-carboxylic acid] |
| < 0.1 µM | ≥ 1 µM | ≥ 1 µM | ≥ 1 µM | < 0.1 µM | – | – | < 0.1 µM | < 0.1 µM | ≥ 1 µM | CCN(CC)CCCCNCc1cc(C(=O)O)ccn1 [#48, 2-({[4-(diethylamino)butyl]amino}methyl)pyridine-4-carboxylic acid] |
